From PubChem BioAssay AID652125 (The Scripps Research Institute Molecular Screening Center, 2013)
Active and inactive are the calls of the source. How the calls were made is not given here.

The molecules below were run against Perilipin-1 (Homo sapiens) + 1-acylglycerol-3-phosphate O-acyltransferase ABHD5 (Homo sapiens) (UniProt O60240+Q8WTS1) (assay: PubChem AID 652125). Conditions: biochemical ABHD5-PLIN1 interaction, luminescence.

Compound | IC50
CN1C(=O)c2ccccc2Oc2ccc(NC(=O)c3cc4ccccc4[nH]3)cc21 | > 39.8 µM (inactive)
CCS(=O)(=O)c1ncc(Cl)c(C(=O)Nc2ccc(S(N)(=O)=O)cc2)n1 | 6.72 µM
O=C(Cc1cccc(F)c1)N1CCN(S(=O)(=O)c2ccc3c(c2)OCCO3)CC1 | > 39.8 µM (inactive)
CCS(=O)(=O)c1ncc(Cl)c(C(=O)Nc2ccc(C)cc2)n1 | 3.53 µM
CC(NC(=O)CN1CCN(S(=O)(=O)c2ccc3c(c2)OCCCO3)CC1)c1cc2ccccc2o1 (configuration not stated) | > 39.8 µM (inactive)
CC(C)N1C(=O)c2ccccc2Oc2ccc(NC(=O)c3ccccc3)cc21 | > 39.8 µM (inactive)
CN1C(=O)c2ccccc2Sc2ccc(NC(=O)NCCc3cccs3)cc21 | 4.31 µM
CN(C)CCCN(C(=O)Cc1ccc(F)cc1)c1nc2ccc(Cl)cc2s1 | inactive
O=C(CCc1nc2ccccc2s1)N1CCN(S(=O)(=O)c2ccc3c(c2)OCCO3)CC1 | inactive
CN(C)CCCN(C(=O)C1CCCCC1)c1nc2cc(Cl)ccc2s1 | > 39.8 µM (inactive)
Cc1ccc(CS(=O)(=O)c2ncc(Cl)c(C(=O)Nc3nnc(C(C)C)s3)n2)cc1 | > 39.8 µM (inactive)
CN1C(=O)c2ccccc2Oc2ccc(NC(=O)c3cccs3)cc21 | > 39.8 µM (inactive)
CCCCCCCNC(=O)Nc1ccc2c(c1)Sc1ccccc1C(=O)N2C | inactive
Cc1ccc(CS(=O)(=O)c2ncc(Cl)c(C(=O)Nc3cccc4ccccc34)n2)cc1 | 2.29 µM
O=C(Nc1ccc2ccccc2c1)c1nc(S(=O)(=O)Cc2ccccc2)ncc1Cl | 2.2 µM
Cc1ccc(CS(=O)(=O)c2ncc(Cl)c(C(=O)N3CCN(C)CC3)n2)cc1 | 5.75 µM

Compound | IC50
CN(C)CCCN(C(=O)c1cc2ccccc2oc1=O)c1nc2ccc(Cl)cc2s1 | inactive
CCCS(=O)(=O)c1ncc(Cl)c(C(=O)Nc2ccc(C(=O)OC)cc2)n1 | 5.42 µM
CCCC(=O)Nc1ccc2c(c1)C(=O)N(C)c1cc(C)ccc1O2 | > 39.8 µM (inactive)
Cc1ccc2cc(CC(=O)N3CCN(S(=O)(=O)c4ccc5c(c4)OCCO5)CC3)oc2c1 | inactive
COc1ccc(OCC(=O)Nc2ccc3c(c2)N(C(C)C)C(=O)c2ccccc2O3)cc1 | > 39.8 µM (inactive)
COc1ccc(CC(=O)N2CCN(S(=O)(=O)c3ccc4c(c3)OCCCO4)CC2)cc1 | > 39.8 µM (inactive)
CN1C(=O)c2ccccc2Sc2ccc(NC(=O)NCCc3ccccc3)cc21 | 3.57 µM
Cc1ccc(CS(=O)(=O)c2ncc(Cl)c(C(=O)NCc3ccc4c(c3)OCO4)n2)cc1 | 3.2 µM
CN1C(=O)c2ccccc2Sc2ccc(NC(=O)NCCCc3ccccc3)cc21 | 1.73 µM
CN(C)CCCN(C(=O)C1CCCCC1)c1nc2cc(Br)ccc2s1 | inactive
CN(C(=O)c1nc(S(C)(=O)=O)ncc1Cl)c1ccccc1 | 3.43 µM
CCCC(=O)Nc1ccc2c(c1)C(=O)N(C)c1ccccc1O2 | > 39.8 µM (inactive)
O=C(CCn1cnc2ccccc21)N1CCN(S(=O)(=O)c2ccc3c(c2)OCCO3)CC1 | > 39.8 µM (inactive)
CCCC(=O)N(CCCN1CCOCC1)c1nc2ccc(Cl)cc2s1 | > 39.8 µM (inactive)
CCc1ccc2c(CC(=O)N3CCN(S(=O)(=O)c4ccc5c(c4)OCCO5)CC3)coc2c1 | 2.54 µM
Cc1ccc2c(CC(=O)N3CCN(S(=O)(=O)c4ccc5c(c4)OCCCO5)CC3)coc2c1C | 3.74 µM

Continued, values first:

IC50 | Compound
2.5 µM | COc1ccc(CCNC(=O)c2nc(S(=O)(=O)Cc3ccc(F)cc3)ncc2Cl)cc1OC
inactive | CN(C)CCCN(C(=O)CCc1ccccc1)c1nc2ccc(Cl)cc2s1
5.32 µM | CCCS(=O)(=O)c1ccc(Cl)c(C(=O)Nc2ccc(C(=O)OCC)cc2)c1
1.42 µM | CS(=O)(=O)c1ncc(Cl)c(C(=O)Nc2ccc(C(F)(F)F)cc2)n1
4.22 µM | NS(=O)(=O)c1ccc(NC(=O)c2nc(S(=O)(=O)Cc3ccccc3)ncc2Cl)cc1
inactive | O=C(Cc1ccc2c(c1)CCCC2)N1CCN(S(=O)(=O)c2ccc3c(c2)OCCO3)CC1
> 39.8 µM (inactive) | CCCCCNC(=O)Nc1ccc2c(c1)Sc1ccccc1C(=O)N2C
> 39.8 µM (inactive) | COc1ccc(CC(=O)N2CCCN(S(=O)(=O)c3ccc(C)cc3)CC2)cc1OC
> 39.8 µM (inactive) | O=C(C1COc2ccccc2O1)N1CCN(S(=O)(=O)c2ccc3c(c2)OCCO3)CC1 (configuration not stated)
inactive | CCCNC(=O)Nc1ccc2c(c1)N(CC)C(=O)c1ccccc1S2
> 39.8 µM (inactive) | O=C(CCc1c[nH]c2ccccc12)N1CCN(S(=O)(=O)c2ccc3c(c2)OCCO3)CC1
3.5 µM | Cc1ccc(NC(=O)c2nc(S(C)(=O)=O)ncc2Cl)cc1
1.41 µM | O=C(c1nc(S(=O)(=O)Cc2ccccc2)ncc1Cl)N(Cc1ccccc1)Cc1ccco1
> 39.8 µM (inactive) | CCCCCCNC(=O)Nc1ccc2c(c1)Sc1ccccc1C(=O)N2C
2.11 µM | Cc1ccc(CS(=O)(=O)c2ncc(Cl)c(C(=O)Nc3cccc(C(F)(F)F)c3)n2)cc1
